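Step 1: Grow cells in 96-well plates. Step 2: Expose to compound for 48 hours at 5 concentrations. Step 3: Interpolate endpoints linearly; if unreached, use highest concentration. GI50: concentration for 50% inhibition of growth. At the TGI there is no net growth.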
Experiments:
Test in all cases: growth of human tumour cells (NCI), 48 h; in the data active = GI50 below about 0.43 µM; inactive = the rest
[1] = tested on: HS 578T breast
[2] = tested on: NCI-H460 lung
[3] = tested on: SK-MEL-28 melanoma
[4] = tested on: COLO 205 colon
[5] = tested on: MOLT-4 leukemia
[6] = tested on: LOX IMVI melanoma
[7] = tested on: DU-145 prostate
[8] = tested on: TK-10 renal
[9] = tested on: NCI-H23 lung
[10] = tested on: CCRF-CEM leukemia
[11] = tested on: MDA-MB-435
[12] = tested on: ACHN renal
[13] = tested on: OVCAR-8 ovarian
[14] = tested on: HT29 colon
[15] = tested on: SR leukemia
[16] = tested on: U251 CNS
[17] = tested on: SW-620 colon
[18] = tested on: A549 NSCLC
[19] = tested on: IGROV1 ovarian
[20] = tested on: SK-MEL-5 melanoma
[21] = tested on: SK-MEL-2 melanoma
[22] = tested on: OVCAR-3 ovarian
[23] = tested on: SNB-75 CNS
[24] = tested on: T-47D breast
[25] = tested on: HL-60(TB) leukemia
[26] = tested on: SF-268 CNS
[27] = tested on: MCF7 breast

COc1cc(-c2nn(-c3ccc(NC(=O)c4cc(Cl)cc(Cl)c4)cc3)cc2-c2ccncc2)ccc1Cl
> 100 µM: TGI [1] | TGI [2] | TGI [3] | TGI [4] | TGI [5] | TGI [6] | TGI [7] | TGI [8] | TGI [9] | TGI [10] | TGI [11] | TGI [12] | TGI [13] | TGI [14] | TGI [15] | TGI [16] | TGI [17] | TGI [18] | TGI [19] | TGI [20] | TGI [21] | TGI [22] | TGI [23] | TGI [24] | TGI [25] | TGI [26] | TGI [27]
inactive: GI50 [2] 8.48 µM | GI50 [3] > 100 µM | GI50 [4] 6.61 µM | GI50 [5] 4.83 µM | GI50 [6] 3.09 µM | GI50 [7] > 100 µM | GI50 [8] > 100 µM | GI50 [9] > 100 µM | GI50 [10] 5.77 µM | GI50 [11] > 100 µM | GI50 [12] > 100 µM | GI50 [13] > 100 µM | GI50 [14] 3.53 µM | GI50 [15] > 100 µM | GI50 [16] 6.23 µM | GI50 [17] > 100 µM | GI50 [18] > 100 µM | GI50 [19] > 100 µM | GI50 [20] 12 µM | GI50 [21] > 100 µM | GI50 [22] > 100 µM | GI50 [23] 4.14 µM | GI50 [24] > 100 µM | GI50 [25] 5.82 µM | GI50 [26] > 100 µM | GI50 [27] > 100 µM

Reference: PubChem BioAssay (NCI)
